Source: US20240124422A1, “MUTANT PI3K-ALPHA INHIBITORS AND THEIR USE AS PHARMACEUTICALS” (Prelude Therapeutics Incorporated, priority 2022, published 2024)

tested on: phosphorylation of AKT on Ser473 as a readout of the PI3K pathway in T-47D (heterozygous PIK3CA H1047R) cells; experiment: PI3K pathway activation assay, pAKT Ser473 HTRF, T-47D cells; format: cell-based; settings: Homo sapiens, T47D, 2 h, two hours of treatment
Method: The inhibitory activity of compounds was evaluated by measuring phosphorylation of AKT on Ser473 as a readout of the PI3K pathway using HTRF (CisBio catalog number: 64AKSPE). These studies were conducted in the T-47D (heterozygous PIK3CA H1047R) and SKBR3 (PIK3CA WT) cell lines. Cells were maintained in a 37° C. incubator at 5% CO2 in the following media: T-47D: RPMI 1640, ATCC© Modification (Gibco, A10491-01) supplemented with 10% v/v FBS (Gibco, 26140-079), 1% penicillin streptomycin (Gibco, 15140-122), and 7.4 ug/mL insulin (MilliporeSigma, I9278); SKBR3: McCoy's 5a (Modified) Medium (Gibco, 16600-082) supplemented with 10% v/v FBS (Gibco, 26140-079). Cells were seeded in 384-well plates at a density of 4,000 cells/well. Compounds dissolved in DMSO were added using a digital dispense (D300E, Tecan) 10-point serial dilution. After two hours of treatment, cells were lysed for thirty minutes and then incubated with detection reagents per HTRF kit material and manufacturer's instructions. Fluorescence signal was measured with a multimode plate reader (Envision 2105, Perkin Elmer). Fluorescent signal was normalized to background and DMSO controls to obtain percent inhibition/activity for each compound.

Structure (SMILES) | IC50 [nM]
Cc1cc(C(C)Sc2ccccc2C(=O)O)c2nc(N3Cc4ccccc4C3)n(C)c(=O)c2c1 (centres unmarked) [Example 13, 2-((1-(2-(isoindolin-2-yl)-3,6-dimethyl-4-oxo-3,4-dihydroquinazolin-8-yl)ethyl)thio)benzoic acid] | 500 to 10000
Cc1cc(C(C)Nc2ccccc2C(=O)O)c2nc(N3Cc4ccccc4C3)n([C@H]3C[C@H](C#N)C3)c(=O)c2c1 (some centres unmarked) [Example 75, 2-((1-(3-((1r,3r)-3-Cyanocyclobutyl)-2-(isoindolin-2-yl)-6-methyl-4-oxo-3,4-dihydroquinazolin-8-yl)ethyl)amino)benzoic acid] | 500 to 10000
Cc1cc(C(C)Nc2ccccc2C(=O)O)c2nc(N3CC4(C3)CC(F)(F)C4)n(C)c(=O)c2c1 (centres unmarked) [Example 109, 2-[1-[2-(6,6-difluoro-2-azaspiro[3.3]heptan-2-yl)-3,6-dimethyl-4-oxoquinazolin-8-yl]ethylamino]benzoic acid] | < 500
Cc1cc(C(C)Nc2ccccc2C(=O)O)c2nc(N3CCC4(CC3)CN(C(=O)OC(C)(C)C)C4)n(C)c(=O)c2c1 (centres unmarked) [Example 108, 2-[1-[3,6-dimethyl-2-[2-[(2-methylpropan-2-yl)oxycarbonyl]-2,7-diazaspiro[3.5]nonan-7-yl]-4-oxoquinazolin-8-yl]ethylamino]benzoic acid] | 500 to 10000
Cc1cc(C(C)Nc2ccccc2C(=O)O)c2nc(O)n(C)c(=O)c2c1 (centres unmarked) [Example 42, 2-((1-(2-hydroxy-3,6-dimethyl-4-oxo-3,4-dihydroquinazolin-8-yl)ethyl)amino) benzoic acid] | 500 to 10000
Cc1cc(C(C)Nc2ccccc2C(=O)O)c2nc(N3CCC(C)(C)CC3)n(C)c(=O)c2c1 (centres unmarked) [Example 17, 2-((1-(2-(4,4-dimethylpiperidin-1-yl)-3,6-dimethyl-4-oxo-3,4-dihydroquinazolin-8-yl)ethyl)amino)benzoic acid] | < 500
Cc1cc(C(C)Nc2ccccc2C(=O)O)c2nc(N3CC4CCC4C3)n(C)c(=O)c2c1 (centres unmarked) [Example 112, 2-[1-[2-(3-azabicyclo[3.2.0]heptan-3-yl)-3,6-dimethyl-4-oxoquinazolin-8-yl]ethylamino]benzoic acid] | < 500
Cc1cc(C(C)Nc2ccccc2C(=O)O)c2nc(N3CC4CC3C4)n(C)c(=O)c2c1 (centres unmarked) [Example 117, 2-((1-(2-(2-Azabicyclo[2.1.1]hexan-2-yl)-3,6-dimethyl-4-oxo-3,4-dihydroquinazolin-8-yl)ethyl)amino)benzoic acid] | 500 to 10000
CSc1ncc(NC(C)c2cc(C)cc3c(=O)n(C)c(N4CC5CC5C4)nc23)c(C(=O)O)n1 (centres unmarked) [Example 118, 5-((1-(2-(3-Azabicyclo[3.1.0]hexan-3-yl)-3,6-dimethyl-4-oxo-3,4-dihydroquinazolin-8-yl)ethyl)amino)-2-(methylthio)pyrimidine-4-carboxylic acid] | 500 to 10000
Cc1cc(C(C)Nc2ccccc2C(=O)O)c2nc(N3CC4CC4C3)n(C)c(=O)c2c1C#N (centres unmarked) [Example 14, 2-((1-(2-(3-azabicyclo[3.1.0]hexan-3-yl)-5-cyano-3,6-dimethyl-4-oxo-3,4-dihydroquinazolin-8-yl)ethyl)amino)benzoic acid] | 500 to 10000
CC(Nc1ccccc1C(=O)O)c1cc(C2CC2)cc2c(=O)n(C)c(N3CC4CC4C3)nc12 (centres unmarked) [Example 76, 2-((1-(2-(3-Azabicyclo[3.1.0]hexan-3-yl)-6-cyclopropyl-3-methyl-4-oxo-3,4-dihydroquinazolin-8-yl)ethyl)amino)benzoic acid] | 500 to 10000
COCC(=O)N1CCN(c2nc3c(C(C)Nc4ccccc4C(=O)O)cc(C)cc3c(=O)n2C)CC1 (centres unmarked) [Example 93, 2-((1-(2-(4-(2-Methoxyacetyl)piperazin-1-yl)-3,6-dimethyl-4-oxo-3,4-dihydro-quinazolin-8-yl)ethyl)amino)benzoic acid] | 500 to 10000
Cc1cc(C(C)Nc2ccccc2C(=O)O)c2nc(N3CCCC34CC4)n(C)c(=O)c2c1 (centres unmarked) [Example 114, 2-((1-(3,6-dimethyl-4-oxo-2-(4-azaspiro[2.4]heptan-4-yl)-3,4-dihydroquinazolin-8-yl)ethyl)amino)benzoic acid] | 500 to 10000
Cc1cc(C(C)Nc2c(F)cccc2C(=O)O)c2nc(N3Cc4ccccc4C3)n(C)c(=O)c2c1 (centres unmarked) [Example 45, 3-fluoro-2-((1-(2-(isoindolin-2-yl)-3,6-dimethyl-4-oxo-3,4-dihydroquinazolin-8-yl)ethyl)amino)benzoic acid] | 500 to 10000
CCc1cc(C(C)Nc2ccccc2C(=O)O)c2nc(N3CC4CC4C3)n(C)c(=O)c2c1 (centres unmarked) [Example 78, 2-((1-(2-(3-Azabicyclo[3.1.0]hexan-3-yl)-6-ethyl-3-methyl-4-oxo-3,4-dihydroquinazolin-8-yl)ethyl)amino)benzoic acid] | 500 to 10000
CC(Nc1ccccc1C(=O)O)c1cc(C#N)cc2c(=O)n(C)c(N3Cc4ccccc4C3)nc12 (centres unmarked) [Example 50, 2-((1-(6-cyano-2-(isoindolin-2-yl)-3-methyl-4-oxo-3,4-dihydroquinazolin-8-yl)ethyl)amino)benzoic acid] | 500 to 10000
Cc1cc(C(C)Nc2ccccc2C(=O)O)c2nc(N3CC4CC4C3)n(C(F)F)c(=O)c2c1 (centres unmarked) [Example 102, 2-((1-(2-(3-Azabicyclo[3.1.0]hexan-3-yl)-3-(difluoromethyl)-6-methyl-4-oxo-3,4-dihydroquinazolin-8-yl)ethyl)amino)benzoic acid] | 500 to 10000
Cc1cc(C(C)Nc2ccccc2C(=O)O)c2nc(N3CC4(CCC4(F)F)C3)n(C)c(=O)c2c1 (centres unmarked) [Example 106, 2-[1-[2-(7,7-difluoro-2-azaspiro[3.3]heptan-2-yl)-3,6-dimethyl-4-oxoquinazolin-8-yl]ethylamino]benzoic acid] | < 500
Cc1cc(C(C)Nc2ccccc2C(=O)O)c2nc(N3CCc4ccccc4C3)n(C)c(=O)c2c1 (centres unmarked) [Example 51, 2-[1-[2-(3,4-dihydro-1H-isoquinolin-2-yl)-3,6-dimethyl-4-oxoquinazolin-8-yl]ethylamino]benzoic acid] | 500 to 10000
Cc1cc(C(C)Nc2ccccc2C(=O)O)c2nc(N3C4CCC3CC4)n(C)c(=O)c2c1 (centres unmarked) [Example 111, 2-[1-[2-(7-azabicyclo[2.2.1]heptan-7-yl)-3,6-dimethyl-4-oxoquinazolin-8-yl]ethylamino]benzoic acid] | < 500

same assay, conditions: two hours of treatment, read-out: T47D pAKT IC50

Structure (SMILES) | IC50 [nM]
Cc1cc(C(C)Nc2ccccc2C(=O)O)c2nc(N3C[C@@H]4[C@H](C3)[C@H]4NC(=O)OCC3CCCO3)n(C)c(=O)c2c1 (stereo partly drawn) [Example 64, 2-((1-(3,6-dimethyl-4-oxo-2-((1R,5S,6s)-6-((((tetrahydrofuran-2-yl)methoxy)carbonyl)amino)-3-azabicyclo[3.1.0]hexan-3-yl)-3,4-dihydroquinazolin-8-yl)ethyl)amino)benzoic acid] | 500 to 10000
Cc1cc(C(C)Nc2ccccc2C(=O)O)c2nc(N3C[C@@H]4C(NC(=O)OCCN5CCOCC5)[C@@H]4C3)n(C)c(=O)c2c1 (stereo partly drawn) [Example 61, 2-((1-(3,6-dimethyl-2-((1R,5S,6s)-6-(((2-morpholinoethoxy)carbonyl)amino)-3-azabicyclo[3.1.0]hexan-3-yl)-4-oxo-3,4-dihydroquinazolin-8-yl)ethyl)amino)benzoic acid] | 500 to 10000
Cc1cc(C(C)Nc2ccccc2C(=O)O)c2nc(N3C[C@@H]4C(NC(=O)OCc5ccccc5)[C@@H]4C3)n(C)c(=O)c2c1 (stereo partly drawn) [Example 59, 2-((1-(2-((1R,5S,6s)-6-(((benzyloxy)carbonyl)amino)-3-azabicyclo[3.1.0]hexan-3-yl)-3,6-dimethyl-4-oxo-3,4-dihydroquinazolin-8-yl)ethyl)amino)benzoic acid] | 500 to 10000
